Laboratory results from PubChem BioAssay AID248 (DTP/NCI, 2004).
Toxic doses and inconclusive results are not listed. No stated cut-off is given here; in the data, active means T/C of 150% or more; inactive means T/C below 125%.

System: L1210 leukemia ip in BDF1 mice, survival T/C
Assay: NCI In Vivo Anticancer Drug Screen. Data for tumor model L1210 Leukemia (intraperitoneal) in B6D2F1 (BDF1) mice
Conditions: endpoint: mean survival time, higher = longer survival
In short: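 Mice bearing the transplanted tumor received compound or vehicle. Survival of the treated group was divided by that of the vehicle-treated control group to give the ratio.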

[1] = dose: 100.0 mg/kg/injection, schedule: Q04DX003 (ip), vehicle: Klucel (hydroxypropylcellulose) (HPC)
[2] = dose: 200.0 mg/kg/injection, schedule: Q04DX003 (ip), vehicle: Klucel (hydroxypropylcellulose) (HPC)
[3] = dose: 400.0 mg/kg/injection, schedule: Q04DX003 (ip), vehicle: Klucel (hydroxypropylcellulose) (HPC)
[4] = dose: 100.0 mg/kg/injection, schedule: Q01DX001 (ip), vehicle: saline
[5] = dose: 200.0 mg/kg/injection, schedule: Q01DX001 (ip), vehicle: saline
[6] = dose: 400.0 mg/kg/injection, schedule: Q01DX001 (ip), vehicle: saline
[7] = dose: 100.0 mg/kg/injection, schedule: Q01DX009 (ip), vehicle: Klucel (hydroxypropylcellulose) (HPC)
[8] = dose: 100.0 mg/kg/injection, schedule: Q01DX001 (ip), vehicle: Klucel (hydroxypropylcellulose) (HPC)
[9] = dose: 200.0 mg/kg/injection, schedule: Q01DX001 (ip), vehicle: Klucel (hydroxypropylcellulose) (HPC)
[10] = dose: 400.0 mg/kg/injection, schedule: Q01DX001 (ip), vehicle: Klucel (hydroxypropylcellulose) (HPC)
[11] = dose: 100.0 mg/kg/injection, schedule: Q01DX001 (ip), vehicle: saline with Tween-80
[12] = dose: 200.0 mg/kg/injection, schedule: Q01DX001 (ip), vehicle: saline with Tween-80
[13] = dose: 400.0 mg/kg/injection, schedule: Q01DX001 (ip), vehicle: saline with Tween-80
[14] = dose: 100.0 mg/kg/injection, schedule: Q01DX009 (ip), vehicle: saline with Tween-80
[15] = dose: 200.0 mg/kg/injection, schedule: Q01DX009 (ip), vehicle: saline with Tween-80
[16] = dose: 50.0 mg/kg/injection, schedule: Q01DX009 (ip), vehicle: saline with Tween-80

Measured: T/C

CCCCCCCCCCCCCCCCSc1ccc(C)cc1
inactive: dose: 100.0 mg/kg/injection, schedule: Q01DX009 (ip), vehicle: other 88 % of control | [1] 89 % of control | dose: 200.0 mg/kg/injection, schedule: Q01DX009 (ip), vehicle: other 88 % of control | [2] 93 % of control | dose: 400.0 mg/kg/injection, schedule: Q01DX009 (ip), vehicle: other 112 % of control | [3] 96 % of control

CC(O)C[P+](c1ccccc1)(c1ccccc1)c1ccccc1 (centres undefined)
inactive: [4] 110 % of control | [5] 96 % of control

Cc1cc(C)c2nc(Cl)cc(C)c2c1
inactive: [4] 91 % of control | [5] 91 % of control | [6] 104 % of control

Cc1ccc(CNC(=S)NC2CCCCC2)cc1C
inactive: dose: 25.0 mg/kg/injection, schedule: Q01DX009 (ip), vehicle: Klucel (hydroxypropylcellulose) (HPC) 97 % of control | dose: 50.0 mg/kg/injection, schedule: Q01DX009 (ip), vehicle: Klucel (hydroxypropylcellulose) (HPC) 93 % of control | [7] 93 % of control

O=[N+]([O-])c1ccc(Cl)cc1C1OCCO1
inactive: [4] 93 % of control | [5] 93 % of control | [6] 104 % of control

CN(C)/C=N/c1nccs1
inactive: [4] 104 % of control | [5] 107 % of control | [6] 107 % of control

CCOC(=O)C(C)(C)CC(=O)COC
inactive: dose: 100.0 mg/kg/injection, schedule: Q01DX001 (ip), vehicle: acetone 98 % of control | dose: 100.0 mg/kg/injection, schedule: Q01DX009 (ip), vehicle: acetone 95 % of control | dose: 200.0 mg/kg/injection, schedule: Q01DX001 (ip), vehicle: acetone 100 % of control | dose: 200.0 mg/kg/injection, schedule: Q01DX009 (ip), vehicle: acetone 90 % of control | dose: 400.0 mg/kg/injection, schedule: Q01DX001 (ip), vehicle: acetone 94 % of control | dose: 400.0 mg/kg/injection, schedule: Q01DX009 (ip), vehicle: acetone 105 % of control

CCCCCCCCCCOC(=O)COc1ccc(C(C)(C)C)cc1
inactive: dose: 100.0 mg/kg/injection, schedule: Q01DX009 (ip), vehicle: saline 92 % of control | dose: 200.0 mg/kg/injection, schedule: Q01DX009 (ip), vehicle: saline 98 % of control

CCC(C)C(=O)Nc1ccc(Cl)c(Cl)c1 (centres undefined)
inactive: [8] 108 % of control | [9] 95 % of control | dose: 222.0 mg/kg/injection, schedule: Q01DX Z (ip), vehicle: methylcellulose (MC) 90 % of control | dose: 333.0 mg/kg/injection, schedule: Q01DX Z (ip), vehicle: methylcellulose (MC) 102 % of control | [10] 95 % of control | dose: 500.0 mg/kg/injection, schedule: Q01DX Z (ip), vehicle: methylcellulose (MC) 96 % of control

CCC(C)C(CN)(CCCCN1CCOCC1)c1cccc2ccccc12 (centres undefined)
inactive: dose: 100.0 mg/kg/injection, schedule: Q04DX003 (ip), vehicle: saline with Tween-80 98 % of control | dose: 200.0 mg/kg/injection, schedule: Q04DX003 (ip), vehicle: saline with Tween-80 93 % of control

CC(=O)NC(CO)C(O)c1ccc([N+](=O)[O-])cc1 (centres undefined)
inactive: [11] 101 % of control | dose: 100.0 mg/kg/injection, schedule: Q04DX002 (ip), vehicle: saline with Tween-80 87 % of control | [12] 87 % of control | dose: 200.0 mg/kg/injection, schedule: Q04DX002 (ip), vehicle: saline with Tween-80 94 % of control | [13] 97 % of control | dose: 400.0 mg/kg/injection, schedule: Q04DX002 (ip), vehicle: saline with Tween-80 100 % of control

Cc1cccc2c1sc1c(C)cc(C(=O)CCC(=O)O)cc12
inactive: [4] 94 % of control | [5] 89 % of control | [6] 97 % of control

NC(=O)C(N)Cc1ccc(OCc2ccccc2)c(OCc2ccccc2)c1 (centres undefined)
inactive: [11] 92 % of control | [14] 101 % of control | [12] 94 % of control | [15] 95 % of control | [13] 86 % of control

Cc1ccc(S(=O)(=O)N2Cc3ccc([N+](=O)[O-])cc3C2)cc1
inactive: dose: 100.0 mg/kg/injection, schedule: Q01DX001 (ip), vehicle: carboxymethylcellulose (CMC) 100 % of control | dose: 200.0 mg/kg/injection, schedule: Q01DX001 (ip), vehicle: carboxymethylcellulose (CMC) 102 % of control | dose: 400.0 mg/kg/injection, schedule: Q01DX001 (ip), vehicle: carboxymethylcellulose (CMC) 105 % of control

CC[n+]1ccc(Nc2ccc(NC(=O)c3ccc([N+](=O)[O-])cc3)cc2)cc1
inactive: dose: 12.5 mg/kg/injection, schedule: Q01DX009 (ip), vehicle: saline with Tween-80 100 % of control | dose: 25.0 mg/kg/injection, schedule: Q01DX009 (ip), vehicle: saline with Tween-80 91 % of control | [16] 88 % of control | [11] 100 % of control | [14] 92 % of control | [12] 110 % of control | [13] 98 % of control

O=C(NO)Nc1ccc([N+](=O)[O-])cc1
inactive: [11] 97 % of control | [14] 93 % of control | [12] 90 % of control | [15] 89 % of control | [13] 99 % of control | dose: 400.0 mg/kg/injection, schedule: Q01DX009 (ip), vehicle: saline with Tween-80 98 % of control

CC(C)(C)N=C=NC(c1ccccc1)(c1ccccc1)c1ccccc1
inactive: dose: 100.0 mg/kg/injection, schedule: Q04DX003 (ip), vehicle: saline 97 % of control | dose: 200.0 mg/kg/injection, schedule: Q04DX003 (ip), vehicle: saline 94 % of control | dose: 400.0 mg/kg/injection, schedule: Q04DX003 (ip), vehicle: saline 87 % of control

CCN(CC)Cc1ccccc1
inactive: dose: 75.0 mg/kg/injection, schedule: Q01DX001 (ip), vehicle: other 95 % of control

COC1C(OC(C)=O)C(OC(C)=O)C(OC(C)=O)C(OC(C)=O)C1OC(C)=O (centres undefined)
inactive: [16] 94 % of control | [14] 98 % of control | [15] 88 % of control

Fc1cccc(/C=C2/c3cc(Cl)ccc3-c3c(Cl)cc(Cl)cc32)c1
inactive: [8] 93 % of control | [7] 88 % of control | [1] 91 % of control | [9] 91 % of control | dose: 200.0 mg/kg/injection, schedule: Q01DX009 (ip), vehicle: Klucel (hydroxypropylcellulose) (HPC) 89 % of control | [2] 93 % of control | [10] 88 % of control | dose: 400.0 mg/kg/injection, schedule: Q01DX009 (ip), vehicle: Klucel (hydroxypropylcellulose) (HPC) 96 % of control | [3] 88 % of control

CN=C(N)Nc1ccc(C(=O)Oc2ccc([N+](=O)[O-])cc2)cc1
inactive: dose: 25.0 mg/kg/injection, schedule: Q01DX009 (ip), vehicle: water 112 % of control | dose: 50.0 mg/kg/injection, schedule: Q01DX009 (ip), vehicle: water 102 % of control
